The IC50 is the concentration that gives 50% inhibition.

Structures are written as SMILES.

We go through 7 molecules from patent US11028058B2, “Heterocyclic compounds as adenosine antagonists” (NUVATION BIO INC., priority 2017, dated 2021).

In one assay the target is adenosine A2A receptor (Homo sapiens (Human), UniProt P29274). The assay can be described thus: A2A adenosine receptor radioligand binding competition assay (filter plates). As to the method:
(§1) Binding of selected compounds to the adenosine A2A, A1, A2B, and A3 receptors was tested using a binding competition assay.
(§2) The general protocol for the radioligand binding competition assay was as follows. Competition binding was performed in duplicate in the wells of a 96 well plate (Master Block, Greiner, 786201) containing binding buffer (optimized for each receptor), membrane extracts (amount of protein/well optimized for each receptor), radiotracer (final concentration optimized for each receptor), and test compound. Nonspecific binding was determined by co-incubation with 200-fold excess of cold competitor. The samples were incubated in a final volume of 0.1 mL at 25° C. for 60 minutes and then filtered over filter plates. Filters were washed six times with 0.5 mL of ice-cold washing buffer (optimized for each receptor) and 50 μL of Microscint 20 (Packard) were added on each filter. The filter plates were sealed, incubated 15 min on an orbital shaker and scintillation counted with a TopCount for 30 sec/filter.
For the A2A adenosine receptor radioligand binding assay, the following modifications were made to the general protocol. GF/C filters (Perkin Elmer, 6005174), presoaked in 0.01% Brij for 2 h at room temperature were used. Filters were washed six times with 0.5 mL of ice-cold washing buffer (50 mM Tris pH 7.4) and 50 μL of Microscint 20 (Packard) was added in each well. The plates were then incubated for 15 min on an orbital shaker and then counted with a TopCount™ for 1 min/well. Another radioligand binding assay was used to evaluate the binding affinity for the adenosine A2A receptor assay was performed in duplicate in the wells of a 384 plate. Assay buffer contained DPBS 500 mM, MgCl2 0.1 mM, and 1% DMSO. Membrane-bead suspension was prepared by mixing 25.98 μL of human adenosine A2A membrane preparation (Perkin Elmer, RBHA2AM400UA) at 33.4 μg/mL, 28 μL of ADA at 20 μg/mL, and 932 μL of SPA beads at 3.33 mg/mL) and incubated the mixture for 20 min at room temperature. Mixed 20 μL of radiotracer (^3H-SCH 58261) at 15 nM to each well containing test articles at various concentrations and centrifuge the plate at 1000 rpm for 1 minute. Added 30 μL of the membraine-bead suspension to each well. Sealed the plates and incubated for 1 hr at room temperature with vigorous mixing on a plate mixer. Plates were read on Microbeta^2 (Perkin Elmer, 2450-0010).

In assay [1] the target is adenosine A1 receptor (CHO-K1-A1 cell membranes) (Homo sapiens (Human), UniProt P30542). Briefly: Adenosine A1 radioligand binding competition assay (3H-DPCPX). As to the method: as §1
as §2, with “sec/filter. […]” for “sec/filter.”

The target of assay [2] is adenosine A2B receptor (HEK-293-A2B cell membranes) (Homo sapiens (Human), UniProt P29275). The assay can be described thus: Adenosine A2B radioligand binding competition assay (3H-DPCPX). The protocol:
as §1
as §2, with “sec/filter. […]” for “sec/filter.”

For assay [3], the target named is adenosine A3 receptor (CHO-K1-A3 cell membranes) (Homo sapiens (Human), UniProt P0DMS8). Briefly: Adenosine A3 radioligand binding competition assay (125I-AB-MECA). The protocol: as §1, §2
For the adenosine A3 radioligand binding competition assay, the following reagents were used:
CHO-K1-A3 cell membranes, 1.5 μg/well; a binding buffer comprising HEPES 25 mM pH 7.4, MgCl2 5 mM, CaCl2 1 mM, 0.5% BSA; a wash buffer comprising HEPES 25 mM pH 7.4, MgCl2 5 mM, CaCl2 1 mM; a Unifilter GF/C—treated for 2 h with 0.5% BS; and 0.4 nM of ^125I-AB-MECA as the tracer.

In assay [4] the target is HEK-293 cells expressing human recombinant adenosine A2A receptor (Homo sapiens (Human), UniProt P29274). The assay can be described thus: cAMP assay, Assay 1 (HTRF kit). To be noted: for inhibition at 0.1 µM: HEK293, 100 nM, read-out: A2a cAMP (% inh @ 100 nM). Type of assay: cell-based. The protocol: The functional activity of compounds was tested using one of the two assays to detect the present of cAMP. Activation of G-protein coupled receptors (such as A2A) results in activation of adenylcyclase which converts ATP into cAMP which is used as a downstream signaling molecule. Therefore, molecules which act as GPCR (or specifically A2A receptor) antagonists cause a decrease in intracellular cAMP concentration.
Both assays used HEK-293 cells expressing human recombinant adenosine A2A receptor were grown prior to the test in media without antibiotic.
12 μL of cells were mixed with 6 μL of the test compound at increasing concentrations and then incubated for 10 min. Thereafter 6 μL of the reference agonist was added at a final concentration corresponding to the historical EC80. The plates were then incubated for 30 min at room temperature. After addition of the lysis buffer and 1 hour incubation, cAMP concentrations were estimated, according to the manufacturer specification, with the HTRF® kit.

Assay [5] concerns the target recombinant human A2A receptor (Homo sapiens (Human), UniProt P29274). Briefly: GTPγ35S scintillation proximity assay for A2A receptor. To be noted: read-out: A2A γGTP assay (% Inh Avg) @ 100 nM. Format: biochemical. The protocol:
For antagonist testing, membranes extracts were prepared from HEK-293 cells expressing recombinant human A2A receptor, were mixed with GDP (volume:volume) and were incubated in assay buffer comprising 20 mM HEPES pH 7.4; 100 mM NaCl, 10 μg/mL saponin, 5 mM MgCl2 for at least 15 min on ice. In parallel, GTPγ[^35S] was mixed with the beads (volume:volume) just before starting the reaction. The following reagents were successively added in the wells of an Optiplate (Perkin Elmer): 25 μL of test compound or reference ligand, 25 μL of the membranes: GDP mix, 25 μL of reference agonist at historical EC80 and 25 μL of GTPγ[^35S] (PerkinElmer NEG030X), diluted in assay buffer to give 0.1 nM. The plate was incubated at room temperature for 1 hour. Then, 20 μL of IGEPAL was added for 30 minutes at room temperature. Following this incubation, 20 μL of beads (PVT-anti rabbit (PerkinElmer, RPNQ0016)), diluted in assay buffer at 50 mg/mL (0.5 mg/10 μL) and 20 μL of an Anti-GαS/olf antibody were added for a final incubation of 3 hours at room temperature. Then, the plates were centrifuged for 10 min at 2000 rpm, incubated at room temperature for 1 hour and counted for 1 min/well with a PerkinElmer TopCount reader.

Sequence of HEK-293 cells expressing human recombinant adenosine A2A receptor (P29274 whole entry): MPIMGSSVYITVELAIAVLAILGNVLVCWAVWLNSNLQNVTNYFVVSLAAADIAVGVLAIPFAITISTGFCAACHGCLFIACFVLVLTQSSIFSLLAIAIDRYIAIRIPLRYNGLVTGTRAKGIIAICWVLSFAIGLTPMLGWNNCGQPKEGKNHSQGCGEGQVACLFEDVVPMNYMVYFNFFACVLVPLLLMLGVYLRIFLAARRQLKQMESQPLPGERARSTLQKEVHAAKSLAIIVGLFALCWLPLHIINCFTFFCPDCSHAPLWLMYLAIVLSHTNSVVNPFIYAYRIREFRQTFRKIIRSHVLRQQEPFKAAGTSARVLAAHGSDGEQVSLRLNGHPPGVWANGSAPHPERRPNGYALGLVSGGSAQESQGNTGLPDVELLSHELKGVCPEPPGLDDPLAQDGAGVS
Sequence of adenosine A2A receptor (P29274 whole entry): as above
Sequence of adenosine A3 receptor (CHO-K1-A3 cell membranes) (P0DMS8 whole entry): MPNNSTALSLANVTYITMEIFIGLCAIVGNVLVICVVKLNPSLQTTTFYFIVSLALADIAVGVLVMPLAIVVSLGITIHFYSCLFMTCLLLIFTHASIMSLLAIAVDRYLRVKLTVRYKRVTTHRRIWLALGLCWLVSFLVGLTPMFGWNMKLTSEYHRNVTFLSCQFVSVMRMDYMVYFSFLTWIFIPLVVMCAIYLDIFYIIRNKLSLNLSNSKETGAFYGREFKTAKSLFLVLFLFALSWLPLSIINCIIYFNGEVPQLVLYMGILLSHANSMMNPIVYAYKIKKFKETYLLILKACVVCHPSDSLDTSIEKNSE
Sequence of recombinant human A2A receptor (P29274 whole entry): as the sequence (P29274 whole entry) above
Sequence of adenosine A1 receptor (CHO-K1-A1 cell membranes) (P30542 whole entry): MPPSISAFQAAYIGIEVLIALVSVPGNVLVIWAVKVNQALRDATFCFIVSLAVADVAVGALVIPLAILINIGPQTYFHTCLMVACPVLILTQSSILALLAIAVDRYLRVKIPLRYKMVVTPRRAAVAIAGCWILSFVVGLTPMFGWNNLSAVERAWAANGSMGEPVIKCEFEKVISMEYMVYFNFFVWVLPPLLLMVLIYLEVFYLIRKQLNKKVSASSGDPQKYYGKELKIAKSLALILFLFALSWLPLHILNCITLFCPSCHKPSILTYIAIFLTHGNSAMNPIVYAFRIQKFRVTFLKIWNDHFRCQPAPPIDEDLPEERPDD
Sequence of adenosine A2B receptor (HEK-293-A2B cell membranes) (P29275 whole entry): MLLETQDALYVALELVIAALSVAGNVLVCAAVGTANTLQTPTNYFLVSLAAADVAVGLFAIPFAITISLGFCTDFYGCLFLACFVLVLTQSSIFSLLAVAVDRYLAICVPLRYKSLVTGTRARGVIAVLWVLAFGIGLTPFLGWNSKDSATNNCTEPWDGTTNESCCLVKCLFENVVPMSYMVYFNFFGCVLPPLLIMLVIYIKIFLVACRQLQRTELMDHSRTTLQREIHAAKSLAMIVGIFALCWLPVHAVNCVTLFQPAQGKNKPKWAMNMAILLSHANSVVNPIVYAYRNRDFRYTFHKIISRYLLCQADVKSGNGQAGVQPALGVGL

As to `Nc1cnc(-c2ccc(O)c(Cl)c2)c(-c2ccccc2)n1` [Compound 1.1, 4-(5-amino-3-phenylpyrazin-2-yl)-2-chlorophenol], the “A2A radioligand binding competition assay % residual binding @ 100 nM” value at adenosine A2A receptor (100 nM) amounted to 30%. Also, the “A2A radioligand binding competition assay % residual binding @ 1000 nM” value on adenosine A2A receptor (1000 nM) was 12%. The figures for the 50% inhibitory concentration (IC50) (at adenosine A2A receptor (Table B1-1); in assay [4]) were 57 nM and 6 nM, respectively. Besides, in assay [1], the “Radioligand binding competition assay % residual binding @ 300 nM (A1)” value is on record as −3%. Further, the “Radioligand binding competition assay % residual binding @ 300 nM (A2B)” value in assay [2] is listed as −9%. For the same molecule, the “Radioligand binding competition assay % residual binding @ 300 nM (A3)” value in assay [3] is listed as 96%. In addition, the inhibition at 0.1 µM was 97% in assay [4] and 82% in assay [5].
Take `Nc1cnc(-c2ccc3nccnc3c2)c(-c2ccccc2)n1` [Compound No. 1.16, 6-phenyl-5-quinoxalin-6-yl-pyrazin-2-amine]: on adenosine A2A receptor, the “A2A radioligand binding competition assay % residual binding @ 3000 nM” value was 80/ND/ND/ND %. Moreover, the inhibition at 0.1 µM in assay [4] worked out at 0%.
With `Nc1cnc(-c2cc(Cl)c3ncccc3c2)c(-c2ccccc2)n1` [Compound No. 1.17, 5-(8-chloroquinolin-6-yl)-6-phenylpyrazin-2-amine], the “A2A radioligand binding competition assay % residual binding @ 3000 nM” value on adenosine A2A receptor is reported as 8/ND/ND/ND %. Also, in assay [4], the inhibition at 0.1 µM turned out to be 99%.
The like results for `Nc1cnc(-c2ccc3ocnc3c2)c(-c2ccccc2)n1` [Compound No. 1.18, 5-(benzo[d]oxazol-5-yl)-6-phenylpyrazin-2-amine] were, in that order, 100/ND/ND/ND % and 14%.
The like results for `Cc1ccc(-c2nc(N)cnc2-c2ccc3ncccc3c2)o1` [Compound No. 1.20, 6-(5-methylfuran-2-yl)-5-(quinolin-6-yl)pyrazin-2-amine] were, in that order, 3/ND/ND/ND % and 81%.
As for `Cc1ccc(-c2nc(N)cnc2-c2cc(Cl)c3ncccc3c2)o1` [Compound No. 1.21, 5-(8-chloroquinolin-6-yl)-6-(5-methylfuran-2-yl)pyrazin-2-amine], the “A2A radioligand binding competition assay % residual binding @ 3000 nM” value on adenosine A2A receptor is listed as 5/ND/ND/ND %. Moreover, the inhibition at 0.1 µM in assay [4] is 100%.
The like results for `Nc1cnc(-c2ccc3ncccc3c2)c(-n2cccn2)n1` [Compound No. 1.22, 6-(1H-pyrazol-1-yl)-5-(quinolin-6-yl)pyrazin-2-amine] were, in that order, 39/ND/ND/ND % and 24%.
